According to US20120071475A1, “UREA DERIVATIVES HAVING PI3K-INHIBITING ACTIVITY” (SHIONOGI & CO., LTD., priority 2009, published 2012):
pKi: −log10 of the molar value.

Columns and labels:
[1] = Metabolic stability test (pooled human liver microsome); type: in vitro ADME; conditions: percentage of test compound remained after 30 minutes, pooled human liver microsome 0.5 mg protein/mL, 1 mmol/L NADPH, 37° C., compound 0.5 μM
Summary of the method: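 Pooled human liver microsomes (0.5 mg protein/mL) incubated with compound and 1 mmol/L NADPH at 37° C. in pH 7.4 Tris buffer for 0 or 30 min. Parent quantified by LC/MS/MS after methanol/acetonitrile quench; value is % remaining at 30 min versus 0 min.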

[2] = system: CYP1A2, CYP2C9, CYP2C19, CYP2D6 and CYP3A4 (one value for the five species); test: CYP inhibition test, five CYP species together (5CYPs_IC50; pooled human liver microsome); type: in vitro ADME; conditions: human, microsomes
Description: O-de-ethylation of 7-ethoxyresorufin (CYP1A2), methyl-hydroxylation of tolbutamide (CYP2C9), 4′-hydroxylation of mephenyloin (CYP2C19), O-demethylation of dextromethorphan (CYP2D6), and hydroxylation of terfenadine (CYP3A4), which are typical substrate for metabolic reactions of human main CYP5 molecular species (CYP1A2, 2C9, 2C19, 2D6, and 3A4), were adopted as indexes.
The reaction conditions are as follows: substrate: 0.5 μmol/L of ethoxyresorufin (CYP1A2), 100 μmol/L of tolbutamide (CYP2C9), 50 μmol/L of S-mephenyloin (CYP2C19), 5 μmol/L of dextromethorphan (CYP2D6), and 1 μmol/L of terfenadine (CYP3A4); reaction time; 15 minutes; reaction temperature: 37° C.; enzyme: pooled human liver microsome 0.2 mg protein/mL; test drug concentration: 1, 5, 10, and 20 μmol/L (4 points).
In a 96-well plate, as a reaction solution, five kinds of substrates, a human liver microsome, and a test drug were added to 50 mmol/L Hepes buffer solution in the aforementioned ratio. A coenzyme NADPH was added to start a metabolic reaction, which is an index. After reacting at 37° C. for 15 minutes, a solution of methanol/acetonitrile (1/1 (v/v)) was added to quench the reaction. After centrifugation at 3000 rpm for 15 minutes, resorufin (CYP1A2 metabolite) in the supernatant was quantitated with a fluorescence multilabel counter, and hydroxylated tolbutamide (CYP2C9 metabolite), 4′-hydroxylated mephenyloin (CYP2C19 metabolite), […], terfenadine in alcohol form (CYP3A4 metabolite) were quantitated with LC/MS/MS.
The case wherein only DMSO (a solvent which dissolved a drug) was added to a reaction system was defined as a control (100%). When a test drug solution was added, the remaining activity (%) at each concentration was calculated, and then IC50 was calculated with a concentration and an inhibition ratio by an inverse estimation using a logistic model.

PI3Kγ [3] = target: T1, PI3Kγ (Homo sapiens, UniProt P48736); test: PI3Kγ inhibitory activity (PI3-kinase HTRF assay, inhibition ratio); type: biochemical; conditions: 0.5 h, compound at 10 μmol/L; read-out: PI3Kg Inhibition Ratio % (10 μM)
Summary of the method: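 Compound at 10 μmol/L preincubated 10 min with PI3Kγ and PIP2 substrate, then reacted with ATP for 30 minutes at room temperature; the compound, substrate and ATP figures as printed (40 μmol/L each) are solution concentrations. HTRF 665/620 nm ratio read after 18 hours. Inhibition ratio calculated against no-compound (100%) and no-enzyme (0%) controls.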

PI3Kγ [4] = target: T1, PI3Kγ; test: PI3Kγ inhibitory activity (Ki value); type: biochemical; conditions: read-out: PI3Kγ Ki value
Description: The PI3Kγ inhibitory activity (Ki value) of a compound was evaluated according to the following procedure:
5 μL of a compound solution containing 10% DMSO and […] of a compound was changed to 5 μL of a compound solution containing 10% DMSO and either 200, 64, 20, 6.4, 2, 0.64, or 0.20 μmol/L of the compound (optionally, this is diluted to a lower concentration). Using a method similar to the method for measuring PI3Kγ inhibitory activity, inhibition ratios of PI3Kγ were measured in the presence of the compound at 50, 16, 5, 1.6, 0.5, 0.16, and 0.05 μmol/L (optionally, a lower concentration). Then an IC50 value was calculated by a logistic approximation method or the linear regression method using two concentrations that cross 50% inhibition. Separately, the ATP concentration in the reaction solution (40 μmol/L ATP, 10 mmol/L MgCl2, 5 mmol/L DTT) at the time of the start of a reaction in the absence of the compound was changed to 80, 40, 20, 10, 5, 2.5, 1.25, or 0.625 μmol/L. Then, HTRF ratios were measured by a similar method. The value obtained by subtracting the HTRF ratio at each ATP concentration from the HTRF ratio in the absence of PI-3 kinase y was defined as the value obtained by multiplying reaction rate (v) at each ATP concentration with a constant. The Michaelis-Menten constant Km was then calculated by the Lineweaver-Burk plot method. The Ki value of a compound was calculated by the following formula wherein “μM” denotes “μmol/L.”
Ki value ═IC50 value/(1+test ATP concentration (μM)/Km (μM))

AKT phosphorylation = AKT phosphorylation inhibitory activity in MCP-1 stimulated THP-1 cells (sandwich ELISA); type: cell-based, Human; conditions: Homo sapiens, compound at 1 μmol/L, MCP-1 stimulation, read-out: AKT phosphorylation inhibition ratio
Description: (1) The AKT phosphorylation inhibitory activity of a compound was evaluated according to the following procedure. (2) Human monocyte-like cell line THP-1 was washed with RPMI-1640 media, incubated in the presence of 5% CO2 at 37° C. for 3 hours, washed with Hank's balanced salt solution (HBSS), adjusted to a cell concentration of 6.7×10^6/mL, and then used in an experiment. (3) 30 μL of the cell suspension and 60 μL of each compound solution containing 0.2% DMSO/HBSS were mixed and then preincubated at 37° C. for 5 minutes. 30 μL of HBSS containing 1.2 μg/mL of MCP-1 was added thereto and then incubated for 60 seconds at 37° C. (4) 30 μL of a cell lysate (the final concentrations: 20 mmol/L Tris-HCl (pH 7.5), 150 mmol/L NaCl, 1 mmol/L EDTA, 1 mmol/L EDTA, 1% Triton X-100, 2.5 mmol/L sodium pyrophosphate, 1 mmol/L β-glycerophosphate, 1 mmol/L Na3VO4, 1 μg/ml leupeptin, 50 nmol/L APMSF) was added thereto to lyse cells. (5) The amount of AKT phosphorylation in the cell solution was measured by sandwich ELISA method using anti-Phospho-Akt (Ser473) antibody and anti-AKT1 antibody. (6) Anti-Phospho-Akt (Ser473) antibodies or anti-AKT1 antibodies were immobilized onto the solid phase of a micro well plate. The prepared cell lysate was added to the micro well plate, incubated, and then washed with ELISA wash solution. (7) An anti-AKT1 antibody or anti-Phospho-Akt (Ser473) antibody, which forms a counterpart to an antibody immobilized on the solid phase, was added thereto, incubated, washed similarly, and then reacted with an HRP-labeled anti-mouse IgG antibody. (8) After incubating for 30 minutes and then washing similarly, 100 μL of TMB (3,3′,5,5″-tetramethylbenzidine) was added thereto, followed by reacting for 30 minutes. (9) 100 μL of stop solution was added to quench the color reaction, and then the absorbance at 450 nm was measured. (10) The amount of AKT phosphorylation in a sample in the absence of a compound was defined as 100% activity, and the amount of AKT phosphorylation in a sample in the absence of MCP-1 was defined as 0% activity to calculate an inhibition ratio of each compound. The measurement was performed for a 1 μmol/L solution of each compound.

hERG channel (IKr) = target: T2, hERG channel (IKr) (Homo sapiens, UniProt Q12809); test: hERG test (whole-cell patch-clamp, IKr in HEK293 cells); type: cell-based; conditions: human, HEK293 cells expressing hERG channel, pH 7.4, inhibition of maximum tail current (IKr), compound 1 μM
T2 construct: expressed in transfected cells; host or cells: HEK293
Description: For the purpose of risk evaluation of QT interval extension of electrocardiogram, the activity on delayed rectification K^+ current (IKr), which plays an important role in a cardiac ventricle repolarization process, was examined using the HEK293 cell that was made to express human ether-a-go-go related gene (hERG) channel.
Using an automatic patch-clamp system (PatchXpress 7000A, Axon Instruments Inc.), by a whole-cell patch-clamp method, after the cell was maintained at a membrane potential of −80 mV, IKr induced upon applying depolarizing stimulation of +50 mV for 2 seconds and further applying repolarizing stimulation of −50 mV for 2 seconds was recorded. After generated electric current became stable, a test substance dissolved at an intended concentration in extracellular fluid (137 mmol/L NaCl, 4 mmol/L KCl, 1.8 mmol/L CaCl2.2H2O, 1 mmol/L MgCl2.6H2O, 10 mmol/L glucose, 10 mmol/L HEPES (4-(2-hydroxyethyl)-1-piperazineethanesulfonic acid), pH=7.4) was applied to the cell for 10 minutes under room temperature condition. From the obtained IKr, the absolute value of the maximum tail current was measured using analysis software (DataXpress ver. 1, Molecular Devices Corporation) and the value of the electric current in a maintained membrane potential as baseline. Moreover, an inhibition ratio for the maximum tail current prior to the application of the test substance was calculated and then compared with a group of media-application (0.1% dimethylsulfoxide solution) to evaluate influence of the test substance on IKr.

CYP3A4 = target: T3, CYP3A4 (Homo sapiens, UniProt P08684); test: CYP3A4 fluorescence MBI test; type: in vitro ADME; conditions: difference in IC50 with 0 or 30 minutes pre-reaction; CYP3A4 expressed in E. coli, substrate 7-BFC
T3 construct: host or cells: E. coli
Summary of the method: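 E. coli-expressed CYP3A4 debenzylating 5.6 μmol/L 7-BFC to fluorescent 7-HFC (Ex 420/Em 535 nm) in K-Pi pH 7.4 at 25° C, 15 min reaction. NADPH pre-incubation of 0 or 30 min, with 10-fold dilution before reaction. IC50 from 0.625–20 μmol/L (6 points); (+) for an IC50 shift ≥5 μmol/L, (−) for ≤3 μmol/L.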

T1 sequence (P48736 whole entry, species assumed): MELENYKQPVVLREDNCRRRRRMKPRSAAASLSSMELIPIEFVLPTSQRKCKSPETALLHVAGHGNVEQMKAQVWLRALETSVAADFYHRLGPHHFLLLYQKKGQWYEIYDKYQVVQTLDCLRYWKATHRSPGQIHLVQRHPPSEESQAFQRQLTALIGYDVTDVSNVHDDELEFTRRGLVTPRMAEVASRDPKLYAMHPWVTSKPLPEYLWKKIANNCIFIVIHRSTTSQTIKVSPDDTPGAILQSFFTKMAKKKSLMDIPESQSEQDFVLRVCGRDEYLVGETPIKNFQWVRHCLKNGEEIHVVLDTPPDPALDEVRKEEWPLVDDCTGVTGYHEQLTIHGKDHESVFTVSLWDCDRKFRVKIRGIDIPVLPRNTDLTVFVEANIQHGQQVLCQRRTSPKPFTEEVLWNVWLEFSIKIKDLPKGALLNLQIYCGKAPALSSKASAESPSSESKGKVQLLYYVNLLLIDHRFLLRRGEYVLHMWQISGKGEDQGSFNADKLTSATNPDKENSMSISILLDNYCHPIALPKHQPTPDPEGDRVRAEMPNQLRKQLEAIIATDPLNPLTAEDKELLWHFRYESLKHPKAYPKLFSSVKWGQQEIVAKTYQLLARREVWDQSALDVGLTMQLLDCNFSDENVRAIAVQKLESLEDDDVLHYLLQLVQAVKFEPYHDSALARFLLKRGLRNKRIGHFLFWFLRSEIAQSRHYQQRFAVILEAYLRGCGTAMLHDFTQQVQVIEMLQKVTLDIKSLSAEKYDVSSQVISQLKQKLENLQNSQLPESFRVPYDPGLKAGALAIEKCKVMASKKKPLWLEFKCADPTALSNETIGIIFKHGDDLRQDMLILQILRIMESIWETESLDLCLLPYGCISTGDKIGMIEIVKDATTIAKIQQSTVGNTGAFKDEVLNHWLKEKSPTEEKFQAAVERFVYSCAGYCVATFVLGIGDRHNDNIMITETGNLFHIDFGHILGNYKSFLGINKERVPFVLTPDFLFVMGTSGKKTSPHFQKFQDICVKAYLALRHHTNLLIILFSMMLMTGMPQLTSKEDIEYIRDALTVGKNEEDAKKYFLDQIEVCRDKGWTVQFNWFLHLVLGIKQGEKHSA
T2 sequence (Q12809 whole entry): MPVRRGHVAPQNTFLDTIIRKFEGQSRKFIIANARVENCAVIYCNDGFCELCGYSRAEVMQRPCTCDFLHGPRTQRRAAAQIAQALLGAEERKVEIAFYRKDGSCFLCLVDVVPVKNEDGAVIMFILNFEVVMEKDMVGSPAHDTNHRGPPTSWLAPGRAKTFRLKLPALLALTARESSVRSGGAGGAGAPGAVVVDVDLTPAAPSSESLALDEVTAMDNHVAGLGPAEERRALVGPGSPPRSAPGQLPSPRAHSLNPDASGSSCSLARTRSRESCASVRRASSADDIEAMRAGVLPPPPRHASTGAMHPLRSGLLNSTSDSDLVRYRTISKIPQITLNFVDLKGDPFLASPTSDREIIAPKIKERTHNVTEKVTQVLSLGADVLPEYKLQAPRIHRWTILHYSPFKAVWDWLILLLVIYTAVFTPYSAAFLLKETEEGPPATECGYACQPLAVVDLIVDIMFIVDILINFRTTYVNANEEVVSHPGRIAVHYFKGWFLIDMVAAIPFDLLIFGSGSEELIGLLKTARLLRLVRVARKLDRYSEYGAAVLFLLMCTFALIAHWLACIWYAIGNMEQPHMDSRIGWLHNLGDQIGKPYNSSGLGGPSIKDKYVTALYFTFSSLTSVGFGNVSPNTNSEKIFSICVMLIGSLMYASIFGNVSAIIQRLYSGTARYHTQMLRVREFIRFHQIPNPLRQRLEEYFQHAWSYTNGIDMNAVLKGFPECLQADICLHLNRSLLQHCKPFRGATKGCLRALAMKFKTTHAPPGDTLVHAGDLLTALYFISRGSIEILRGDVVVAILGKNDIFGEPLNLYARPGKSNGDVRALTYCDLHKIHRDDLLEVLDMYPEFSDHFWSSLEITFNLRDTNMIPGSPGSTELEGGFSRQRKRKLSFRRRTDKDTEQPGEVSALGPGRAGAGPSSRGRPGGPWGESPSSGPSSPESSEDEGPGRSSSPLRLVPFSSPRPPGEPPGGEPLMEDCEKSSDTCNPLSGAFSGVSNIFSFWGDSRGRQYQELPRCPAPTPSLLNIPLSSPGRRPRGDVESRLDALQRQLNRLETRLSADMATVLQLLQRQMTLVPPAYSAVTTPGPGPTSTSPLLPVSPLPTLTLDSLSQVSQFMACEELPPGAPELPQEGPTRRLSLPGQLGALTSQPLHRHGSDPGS
T3 sequence (P08684 whole entry): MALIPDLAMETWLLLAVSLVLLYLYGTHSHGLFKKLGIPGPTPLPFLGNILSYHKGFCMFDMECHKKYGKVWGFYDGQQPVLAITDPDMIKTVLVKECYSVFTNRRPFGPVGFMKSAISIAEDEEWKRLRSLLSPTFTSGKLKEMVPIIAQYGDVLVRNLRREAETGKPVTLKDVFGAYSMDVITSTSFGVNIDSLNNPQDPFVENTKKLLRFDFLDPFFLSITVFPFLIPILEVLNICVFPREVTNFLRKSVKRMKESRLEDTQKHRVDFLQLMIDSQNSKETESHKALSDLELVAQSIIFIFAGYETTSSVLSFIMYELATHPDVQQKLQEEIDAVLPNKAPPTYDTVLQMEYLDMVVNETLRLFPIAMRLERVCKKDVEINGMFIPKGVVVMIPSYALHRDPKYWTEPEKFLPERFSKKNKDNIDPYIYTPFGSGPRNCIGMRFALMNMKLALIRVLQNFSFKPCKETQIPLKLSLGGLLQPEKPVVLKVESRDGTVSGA

Compound	IC50 at 15 min [2]	inhibition at 10 µM (PI3Kγ [3])	inhibition at 1 µM (AKT phosphorylation)	further results
COc1cc(N2CCc3nc(NC(=O)Nc4cn(C)nc4C(=O)NC(C)C)sc3C2)nc(OC)n1 [Compound I-106]	≥ 10 µM	–	–	hLMS_ox(at 0.5 μM) % [1]: 83.9%
COc1cc(N2CCc3nc(NC(=O)Nc4ccccc4C(O)CCC(C)C)sc3C2)nc(OC)n1 (stereo not drawn) [Compound I-117]	> 20 µM	–	–	–
Cc1nc(NC(=O)Nc2ccccc2C(=O)NC(C)C)sc1-c1csc(S(=O)(=O)N2CCC(O)CC2)c1 [Compound I-146]	–	77%	≥ 95%	pKi (PI3Kγ [4]): 7.33
COc1ccc(N2CCc3nc(NC(=O)Nc4ccccc4C(=O)NC(C)C)sc3C2)cn1 [Compound I-50]	≥ 10 µM	–	–	–
CC(=O)c1cccc(-c2ccc3nc(NC(=O)Nc4ccccc4OCCC(C)C)sc3n2)c1 [Compound I-219]	≥ 10 µM	≥ 95%	–	–
COc1cc(N2CCc3nc(NC(=O)Nc4ccccc4C(=O)NC4CCCC4O)sc3C2)nc(OC)n1 (stereo not drawn) [Compound I-134]	–	≥ 95%	93%	hLMS_ox(at 0.5 μM) % [1]: 88.4%; inhibition at 10 min, 1 µM (hERG channel (IKr)): 1.7%
COc1cc(N2CCc3nc(NC(=O)Nc4ccccc4C(=O)C(C)C)sc3C2)nc(OC)n1 [Compound I-64]	≥ 10 µM	–	–	–
CC(=O)c1cccc(-c2ccc3nc(NC(=O)Nc4ccccc4N4CCCC4=O)nn3c2)c1 [Compound I-224]	≥ 10 µM	–	–	–
COc1cc(N2CCc3nc(NC(=O)Nc4cnccc4C(=O)NC(C)C)sc3C2)nc(OC)n1 [Compound I-27]	–	≥ 95%	94.1%	inhibition at 10 min, 1 µM (hERG channel (IKr)): 2%; MBI (CYP3A4): (−) (When 3 μmol/L or less, the compound is shown as (−))
CC(C)NC(=O)c1ccccc1NC(=O)Nc1nc2c(s1)CN(c1ccc(C(F)(F)F)cc1)CC2 [Compound I-208]	> 20 µM	–	–	–
COc1cncc(C2CCc3nc(NC(=O)Nc4ccccc4C(=O)NC(C)C)sc3C2)c1 (stereo not drawn) [Compound I-81]	> 20 µM	–	–	MBI (CYP3A4): (−) (When 3 μmol/L or less, the compound is shown as (−))
CC(C)NC(=O)c1ccccc1NC(=O)Nc1nc2c(s1)CN(c1cncc(S(=O)(=O)N(C)C)c1)CC2 [Compound I-108]	> 20 µM	–	–	MBI (CYP3A4): (−) (When 3 μmol/L or less, the compound is shown as (−))
CC(CO)NC(=O)c1ccccc1NC(=O)Nc1nc2c(s1)CN(c1cccc(F)c1)CC2 (stereo not drawn) [Compound I-115]	≥ 10 µM	≥ 95%	–	hLMS_ox(at 0.5 μM) % [1]: 84.7%
COc1cc(N2CCc3nc(NC(=O)Nc4ccc(F)cc4C(=O)NC(C)C)sc3C2)cnc1OC [Compound I-105]	≥ 10 µM	–	–	–
CNS(=O)(=O)c1cncc(N2CCc3nc(NC(=O)Nc4ccccc4C(=O)NC(C)C)sc3C2)c1 [Compound I-129]	–	≥ 95%	≥ 95%	inhibition at 10 min, 1 µM (hERG channel (IKr)): 5.5%; MBI (CYP3A4): (−) (When 3 μmol/L or less, the compound is shown as (−))
COc1cc(N2CCc3nc(NC(=O)Nc4ccccc4C(=O)NCC(C)O)sc3C2)nc(OC)n1 (stereo not drawn) [Compound I-157]	–	87%	≥ 95%	hLMS_ox(at 0.5 μM) % [1]: 96.2%; inhibition at 10 min, 1 µM (hERG channel (IKr)): 0.4%
